This note sets out measurements from patent US20190330290A1, “PHARMACEUTICAL ASSOCIATION OF GROWTH FACTOR RECEPTOR AGONIST AND ADHESION PROTEIN INHIBITOR FOR CONVERTING A NEOPLASTIC CELL INTO A NON-NEOPLASTIC CELL AND USES THEREOF” (HISTIDE AG, priority 2015, published 2019).

Where no end group is shown, it is not given here.

The subject of one experiment is p53. Briefly: p53 protein expression level, immunofluorescence staining quantified with ImageJ. The class given is cell-based, human. The note with it: MG63 cells; alginate matrix with cyclic GFR-binding peptide + SiRNA Integrin alpha 3 + SiRNA Integrin beta 1; 48 h; 400 ng/mL GFR-binding compound. Here is the method: (§1) The cells were first fixed for 20 min with 4% paraformaldehyde/PBS at 4° C. After fixation, the cells were permeabilized in PBS containing 1% Triton X-100 for 15 min. Protein immunofluorescent visualization was performed by first treating the cells with 1% (v/v) specific monoclonal antibodies for 1 hour at 37° C. Then the samples were incubated with Alexa fluor® 568 or 647 (F(ab′)2 fragment of IgG(H+L)) during 30 min at room temperature. The cell nuclei were counterstained in 20 ng/mL DAPI for 10 min at room temperature.
(§2) For this type of quantification the freeware image analysis ImageJ® software was used. The raw image was first converted to an 8-bit file, and then the unsharp mask feature was used (settings 1:0.2) to remove the image background (rolling ball radius 10). After smoothing, the resulting image, which appears similar to the original photomicrograph but with minimal background, was then converted to a binary image by setting a threshold. Threshold values were determined empirically by selecting a setting, which gave the most accurate binary image for a subset of randomly selected photomicrographs. The cell area was determined by manual delineation on raw fluorescent images. Total contact area and mean contact area per cell were calculated by “analyse particules” in ImageJ®. A minimum of 50 cells per condition were analyzed.
(§3) Neoplastic cells (in this example osteosarcoma cells) were cultured in the presence of pharmaceutical associations of the invention. A rapid (24 hours) decrease of the tumor markers was observed (FIG. 5). The adhesion checkpoint then activates the tumor suppressor proteins p53 and pRB.
(§4) The alginate used in these experiments was the Ultra Pure Sodium alginate powder PRONOVA UP MVG from Novamatrix (FMC Biopolymers, cat. no. 4200106). To a 1% MillQ water (1 g per 100 mL) alginate solution were added the cyclic GFR-binding peptide and the SiRNA molecules. The resulting mixture was then added to the cell cultures for 48 h.

In another experiment the test system is pRB. Briefly: pRB phosphorylation level, immunofluorescence staining quantified with ImageJ. The class given is cell-based, human. On the procedure: as §1, §2, §3, §4
[1] abbreviates: MG63 cells, alginate matrix with cyclic GFR-binding peptide + SiRNA Integrin alpha 3 + SiRNA Integrin beta 1, 48 h, 400 ng/mL GFR-binding compound.
Setting [2] is: human osteosarcoma cells, MG63, pharmaceutical association containing the GFR-binding compound (Table 6).

As to “GGGGGGGGGDENEKVVSTPPTSSVPTEVSPINTLYFDENEKVV (also: cyclic (mode not given here)) [SEQ ID NO: 4733]”, in the experiment with p53, the “P53 (%)” value was 38%. In the experiment with pRB (setting [1]), the “pRB (%)” value was found to be 17%. The corresponding values for “AAAAAAAAADAANNVVGIPEPSSVSQELSATSMLYYDAANNVV (also: cyclic) [SEQ ID NO: 4730]” are 37% and 10%. Consider “AAAAAAAAADENEKVVAASKASSVPEKMRPVQTRKIDDSSNVI (also: cyclic) [SEQ ID NO: 4741]”, for which the “P53 (%)” value in the experiment with p53 is 49%. The “pRB (%)” value with pRB (setting [1]) is 15%. On to “AAAAAAAAADENEKVVAASKASSSRVELRSVKIAKVDDSSNVI (also: cyclic) [SEQ ID NO: 4723]”, for which the “P53 (%)” value in the experiment with p53 is given as 50%. Besides, the “pRB (%)” value with pRB (setting [1]) is 8%. “AAAAAAAAADAANNVVKIPKASSTQVRLRSVKTAKVDAANNVV (also: cyclic) [SEQ ID NO: 4740]”: the “P53 (%)” value in the experiment on p53 was 52%. Moreover, the “pRB (%)” value in the experiment on pRB (setting [1]) came to 15%. Turning to “SSVKSQPSRVHHKPLSMLYV (Non-cyclic GFR-binding peptide) [SEQ ID NO: 62]”, the “pRB (%)” value in the experiment with pRB (setting [2]) came out at 18%. As for “GGGGGGGGGFDNDENVVGIPEPSSAPVDMRPVQIRKIFDNDENVV (also: cyclic (mode not given here)) [SEQ ID NO: 4742]”, the “P53 (%)” value in the experiment on p53 is 46%. Further, the “pRB (%)” value with pRB (setting [1]) came out at 14%. Regarding “GGGGGGGGGFDNDENVVRVPSTSSVPEKMEPLTMLYYFDNDENVV (also: cyclic (mode not given here)) [SEQ ID NO: 4736]”, the “P53 (%)” value with p53 is recorded as 47%. For the same sequence, the “pRB (%)” value with pRB (setting [1]) amounted to 9%. For the sequence “SSVKSQPSRVHHSPISILFI (Non-cyclic GFR-binding peptide) [SEQ ID NO: 57]”, the “pRB (%)” value in the experiment on pRB (setting [2]) was determined as 17%.

For the sequence “GGGGGGGGGFDNDENVVAASKASSVPQRLRSVKVAKVFDNDENVV (also: cyclic (mode not given here)) [SEQ ID NO: 4739]”, in the experiment with p53, the “P53 (%)” value is 51%. Besides, the “pRB (%)” value in the experiment on pRB (setting [1]) worked out at 14%.

With “AAAAAAAAADENEKVVAASKASSVPQEEEPLPMVYYDAANNVV (also: cyclic) [SEQ ID NO: 4721]”, the “P53 (%)” value in the experiment with p53 was found to be 39%. Besides, the “pRB (%)” value in the experiment with pRB (setting [1]) is given as 12%.

Regarding “GGGGGGGGGDDSSNVIAASKASSTPTDLNAISTLYFDDSSNVI (also: cyclic (mode not given here)) [SEQ ID NO: 4728]”, in the experiment with p53, the “P53 (%)” value turned out to be 33%. Besides, in the experiment on pRB (setting [1]), the “pRB (%)” value came out at 15%. On to “GGGGGGGGGDENEKVVGIPEPSSAPVDLKPLSTLYVDENEKVV (also: cyclic (mode not given here)) [SEQ ID NO: 4720]”, for which the “P53 (%)” value in the experiment with p53 is given as 38%. The “pRB (%)” value in the experiment with pRB (setting [1]) came out at 9%.

Turning to “AAAAAAAAADAANNVVKIPKASSSRVRLSSLSTLFFDAANNVV (also: cyclic) [SEQ ID NO: 4727]”, in the experiment with p53, the “P53 (%)” value is reported as 32%. Moreover, the “pRB (%)” value with pRB (setting [1]) stood at 11%.

As for “AAAAAAAAADENEKVVRVPSTSSVPAEESNITVQIMDDSSNVI (also: cyclic (mode not given here)) [SEQ ID NO: 4738]”, the “P53 (%)” value with p53 is on record as 55%. In addition, in the experiment on pRB (setting [1]), the “pRB (%)” value was 16%. For “SIPKASSTPTELSPINMLYF (Non-cyclic GFR-binding peptide) [SEQ ID NO: 54]”, in the experiment on pRB (setting [2]), the “pRB (%)” value was determined as 23%. The same measure, in the same setting: under “VVPKPSSAPTQLEPISILYL (Non-cyclic GFR-binding peptide) [SEQ ID NO: 59]” stands 21%. “GGGGGGGGGDENEKVVNDEGLESVPEDLSSLSVLFFDENEKVV (also: cyclic (mode not given here)) [SEQ ID NO: 4717]”: in the experiment on p53, the “P53 (%)” value came to 42%. Moreover, the “pRB (%)” value in the experiment with pRB (setting [1]) is recorded as 12%.

Take “GGGGGGGGGDDSSNVIKIPKASSVPTGGSNITVQIMDDSSNVI (also: cyclic (mode not given here)) [SEQ ID NO: 4722]”: the “P53 (%)” value in the experiment on p53 was 51%. Besides, in the experiment on pRB (setting [1]), the “pRB (%)” value is on record as 17%. Taken in the same sequence, the figures for “GGGGGGGGGDDSSNVIGIPEPSSAPTRLEPISMLYLDENEKVV (also: cyclic (mode not given here)) [SEQ ID NO: 4731]” were 40% and 8%. The corresponding values for “GGGGGGGGGDDSSNVIRVPSTSSAPTKMNAISMLYFDENEKVV (also: cyclic (mode not given here)) [SEQ ID NO: 4719]” are 44% and 15%. Taken in the same sequence, the figures for “GGGGGGGGGDENEKVVKIPKASSTQVRLRPVQIRKIDAANNVV (also: cyclic (mode not given here)) [SEQ ID NO: 4724]” were 47% and 7%. In the case of “NDEGLESVPTEERSVKVAKV (Non-cyclic GFR-binding peptide) [SEQ ID NO: 63]”, in the experiment on pRB (setting [2]), the “pRB (%)” value worked out at 22%. For “GGGGGGGGGFDNDENVVSTPPTSSTPTKMSNITTQIMFDNDENVV (also: cyclic (mode not given here)) [SEQ ID NO: 4737]”, the “P53 (%)” value in the experiment on p53 was found to be 53%. Also, the “pRB (%)” value in the experiment on pRB (setting [1]) is 18%. In the case of “GGGGGGGGGDDSSNVIRVPSTSSVPTGQSAISTLYLDDSSNVI (also: cyclic (mode not given here)) [SEQ ID NO: 4718]”, the “P53 (%)” value with p53 is given as 40%. For the same sequence, in the experiment on pRB (setting [1]), the “pRB (%)” value is on record as 10%. In the case of “NDEGLESVPTEESAISMLYL (Non-cyclic GFR-binding peptide) [SEQ ID NO: 56]”, the “pRB (%)” value in the experiment on pRB (setting [2]) was found to be 18%. As for “GGGGGGGGGDENEKVVRVPSTSSTQVDLNAISVLYFDENEKVV (also: cyclic (mode not given here)) [SEQ ID NO: 4729]”, the “P53 (%)” value in the experiment with p53 is reported as 38%. For the same sequence, the “pRB (%)” value in the experiment with pRB (setting [1]) amounted to 13%.

As for “GGGGGGGGGDDSSNVISTPPTSSSRVQLSAISMLYLDDSSNVI (also: cyclic (mode not given here)) [SEQ ID NO: 4725]”, the “P53 (%)” value in the experiment on p53 was found to be 29%. Also, the “pRB (%)” value with pRB (setting [1]) stood at 6%. The corresponding values for “GGGGGGGGGDENEKVVKIPKASSVSQQLEPISTLYLDENEKVV (also: cyclic (mode not given here)) [SEQ ID NO: 4732]” are 42% and 9%. “GGGGGGGGGDDSSNVISTPPTSSVSQKMKPLSILYVDDSSNVI (also: cyclic (mode not given here)) [SEQ ID NO: 4735]”: in the experiment on p53, the “P53 (%)” value is on record as 51%. The “pRB (%)” value in the experiment with pRB (setting [1]) was determined as 8%. On to “ASASPSSVSQDLSSLSILFF (Non-cyclic GFR-binding peptide) [SEQ ID NO: 58]”, for which the “pRB (%)” value in the experiment on pRB (setting [2]) stood at 15%. Take “GGGGGGGGGDENEKVVRVPSTSSTQVKMSAISMLYLDENEKVV (also: cyclic (mode not given here)) [SEQ ID NO: 4726]”: in the experiment on p53, the “P53 (%)” value is recorded as 32%. In the experiment on pRB (setting [1]), the “pRB (%)” value worked out at 10%.

Regarding “AAAAAAAAADENEKVVKIPKASSVPTKMKPLSVLYVDDSSNVI (also: cyclic (mode not given here)) [SEQ ID NO: 4734]”, the “P53 (%)” value with p53 is on record as 50%. The “pRB (%)” value in the experiment with pRB (setting [1]) turned out to be 12%.
